Assays:
human NLRP3 [1] = biological target: T1, human NLRP3 (Homo sapiens, UniProt Q96P20); assay: Scintillation Proximity (SPA) NLRP3 Assay, displacement of 3H-MCC950; assay type: binding; conditions: for IC50: displacement of 3H-MCC950 from human NLRP3; for fold improvement in binding activity (SPA IC50): relative to Comparative Example B1
In short: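 Human NLRP3 (350 nM) preincubated 15 min at RT with compound (5% DMSO final) in HEPES pH 7.5 buffer with 100 μM ADP, then 125 nM 3H-MCC950 added for 60 min. Copper PVT SPA beads added; counts read 6 h later. Specific binding = signal minus no-protein wells, duplicates averaged; IC50 reported.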

human NLRP3 [2] = biological target: T1, human NLRP3; assay: Human PBMC NLRP3 Assay (LPS priming, ATP stimulation, cytokine measurement); assay type: cell-based; design: host or cells: human PBMCs (A2); human whole blood from healthy volunteers (A3); conditions: for IC50: human PBMC, LPS + ATP
Description: Reagents: Human PBMCs (Normal): iXCells Cat #10HU-003; RPMI 1640 medium with GlutaMAX: ThermoFisher Cat #61870127 (Complete Media: 4.5 g/L D-glucose, 10% FBS, 100 mM NaPyr, 1% Pen/Strep, 10 mM HEPES and 0.05 mM of ®-mercaptoethanol; Assay Media: 4.5 g/L D-glucose, 100 mM NaPyr, 1% Pen/Strep, 10 mM HEPES and 0.05 mM of mercaptoethanol; 96-well V-bottom Plates: Costar Cat #3894; LPS (E. coli O26:B6): Sigma Cat #L2654, stock 5 mg/mL in PBS; ATP: Sigma Cat #A6419, prepared in a 250 mM stock in 1 M HEPES (adjusted to pH 7.4).
Cryopreserved PBMCs were rapidly thawed in a 37° C. water bath for 2 min. Cells were then centrifuged at 1200 RPM for 5 min and resuspended in ˜50 mL of fresh RPMI 1640 Complete Medium. A count was undertaken using a hemocytometer and adjusted to 2.5×10^5 cells/mL. V-shaped 96-well plates were seeded with 200 μL of PBMCs (5×10^4) per well and subsequently incubated overnight at 37° C. with 5% CO2. Assay Media was then prepared containing 100 ng/ml of LPS. PBMCs were then centrifuged at 1,200 RPM for 5 min, serum containing media was aspirated, and 150 μL/well of Assay Media+LPS was immediately added. Assay Media without LPS was added in the untreated control wells. Cells were then primed with LPS for 4 h at 37° C. with 5% CO2. A concentration response curve (CRC) was prepared of 1000× test compound in 100% DMSO. The CRC was then diluted 1:50 in Assay Media and then further diluted by 1:5× in Assay Media resulting in a final 4×CRC in 0.4% DMSO/Assay Media. 50 μL/well of 4× test compound CRC or vehicle (0.4% DMSO/Assay Media) was then transferred into each well and subsequently incubated for 30 min at 37° C. with 5% CO2. Cells were stimulated by adding 4 μL of 250 mM ATP, using a 250 mM stock prepared in 1 M Hepes without further dilution (for a final concentration of 5 mM), for 1 h at 37° C. with 5% CO2 Plates were then centrifuged at 1200 RPM for 5 min; and 50 μl of the media was transferred to a clean 96-well storage plate for cytokine measurements using the mesoscale platform, and stored at −80° C. until analyzed. Compounds were added 30 minutes before priming the cells with LPS when TNFα was required to be quantified in the cytokine panel to confirm selectivity.
PBMC NLRP3 IC50 assay results, as a measurement of cellular potency, are provided in Table B. “A” activity=<0.01 uM; “B” activity=0.01-0.1 uM; “C” activity=>0.1-0.5 uM; “D” activity=>0.5 uM.

human NLRP3 [3] = biological target: T1, human NLRP3; assay: Human Whole Blood (hWB) NLRP3 Assay (LPS/ATP, IL-1β); assay type: cell-based; design: host or cells: human whole blood from healthy volunteers (A3)
Description: Human whole blood is drawn from healthy volunteers after obtaining written informed consent. Heparin lithium coated tubes are used to collect blood from volunteers. Blood samples are distributed on 96 well plates using 90 μl per well.
Priming procedure: Priming is performed by adding 5 μl of LPS (O26:B6; Sigma L-2654) at a final concentration of 1 μg/ml for 4.5 hours in a humidified incubator with 37° C., 5% CO2. Thirty minutes prior to NLRP3 activation, 5 μl of a 20× compound solution or vehicle (2% dimethylsulfoxide (DMSO)) is added to each well and plates were incubated on a shaker (450 rpm) in a humidified incubator with 37° C., 5% CO2.
Alternative priming procedure: Thirty minutes prior to LPS priming, 5 μl of a 20× compound solution or vehicle (2% dimethylsulfoxide (DMSO)) is added to each well and plates were incubated on a shaker (450 rpm) in a humidified incubator with 37° C., 5% CO2. Priming is performed by adding 5 μl of LPS (O26:B6; Sigma L-2654) at a final concentration of 1 μg/ml for 5 hours in a humidified incubator with 37° C., 5% CO2.
Activation is then performed by adding 3.3 μl of a 31×ATP solution per well. At the end of the 30 minutes stimulation, the plates are centrifuged (800 g, 10 min, room temperature) and the plasma from each well is frozen at −80° C. IL-1β levels in the supernatant were analyzed using a mesoscale discovery assay (MSD K151TUK) according to the manufacturers' instructions.
There is no detectable difference in assay results using the priming procedure versus the alternative priming procedure.
hWB NLRP3 IC50 assay results, as a measurement of whole blood potency, are provided in Table B. “A” activity=<1 uM; “B” activity=1-2 uM; “C” activity=>2-3 uM; “D” activity=>3 uM.

T1 sequence (Q96P20 whole entry): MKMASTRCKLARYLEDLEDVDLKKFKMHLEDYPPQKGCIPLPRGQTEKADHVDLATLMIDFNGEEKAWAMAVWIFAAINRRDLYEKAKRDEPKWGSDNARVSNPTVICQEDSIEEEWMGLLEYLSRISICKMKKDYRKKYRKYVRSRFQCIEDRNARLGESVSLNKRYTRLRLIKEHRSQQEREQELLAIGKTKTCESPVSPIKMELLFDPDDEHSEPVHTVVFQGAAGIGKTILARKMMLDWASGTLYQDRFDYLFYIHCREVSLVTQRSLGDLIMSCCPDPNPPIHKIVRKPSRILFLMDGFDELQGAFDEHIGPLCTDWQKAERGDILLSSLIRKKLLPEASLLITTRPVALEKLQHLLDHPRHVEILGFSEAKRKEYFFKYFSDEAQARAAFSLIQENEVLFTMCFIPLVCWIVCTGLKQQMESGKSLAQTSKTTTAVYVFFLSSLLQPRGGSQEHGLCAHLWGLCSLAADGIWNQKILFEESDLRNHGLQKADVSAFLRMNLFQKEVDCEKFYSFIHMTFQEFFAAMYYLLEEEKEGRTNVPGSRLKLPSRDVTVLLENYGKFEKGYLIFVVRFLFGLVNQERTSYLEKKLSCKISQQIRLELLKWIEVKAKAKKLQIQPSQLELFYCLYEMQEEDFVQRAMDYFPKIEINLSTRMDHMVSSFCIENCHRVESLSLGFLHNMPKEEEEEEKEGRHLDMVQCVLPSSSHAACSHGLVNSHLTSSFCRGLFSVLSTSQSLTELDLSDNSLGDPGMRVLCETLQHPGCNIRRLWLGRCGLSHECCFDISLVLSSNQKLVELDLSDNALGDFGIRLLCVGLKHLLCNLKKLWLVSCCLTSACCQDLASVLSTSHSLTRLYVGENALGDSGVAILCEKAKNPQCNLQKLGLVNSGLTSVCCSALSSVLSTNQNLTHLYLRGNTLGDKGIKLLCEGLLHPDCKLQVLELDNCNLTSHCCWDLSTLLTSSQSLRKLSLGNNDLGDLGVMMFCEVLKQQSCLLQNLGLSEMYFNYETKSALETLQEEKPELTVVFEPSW

SMILES | IC50 (human NLRP3 [1]; Table B, activity class) [nM] | IC50 (human NLRP3 [2]; Table C) [nM] | IC50 (human NLRP3 [3]; Table B, activity class) [nM] | further results
C[C@@H]1CCN(c2nnn[nH]2)C[C@H](NC(=O)N(C)c2ccc(C(F)(F)F)c(F)c2)C1 (single isomer, unassigned) [9A*] | < 1000 | – | – | IC50 (human NLRP3 [2]; Table B, activity class): 10 to 100 nM
C[C@@H]1C[C@@H](NC(=O)N(C)c2ccc(OC(F)(F)F)cc2)[C@H]2CC[C@@H]1N2c1nnn[nH]1 (single isomer, unassigned) [45A*] | – | – | < 1000 | IC50 (human NLRP3 [1]; Table C): 110 nM; fold increase in binding activity (SPA IC50) (human NLRP3 [1]; relative to Compound 39A): > 12 fold; IC50 (human NLRP3 [3]; Table C): 420 nM
C[C@@H]1C[C@@H](NC(=O)N(C)c2ccc(OC(F)(F)F)c(OC(F)F)c2)[C@H]2CC[C@@H]1N2c1nnn[nH]1 (single isomer, unassigned) [63A*] | < 1000 | – | 2000 to 3000 | –
C[C@@H]1C[C@@H](NC(=O)N(C)c2ccc(C(F)F)cc2F)[C@H]2CC[C@@H]1N2c1nnn[nH]1 (single isomer, unassigned) [55A*] | < 1000 | – | < 1000 | –
C[C@@H]1C[C@@H](NC(=O)N(C)c2ccc(OC(F)(F)F)cc2F)[C@H]2CC[C@@H]1N2c1nnn[nH]1 (single isomer, unassigned) [56A*] | < 1000 | – | < 1000 | –
CCN(C(=O)N[C@@H]1C[C@H](C)CN(c2nnn[nH]2)C1)c1ccc(Cl)cc1 [Compound 6A, 1-(4-chlorophenyl)-1-ethyl-3-((3R,5S)-5-methyl-1-(1H-tetrazol-5-yl)piperidin-3-yl)urea] | < 1000 | – | – | IC50 (human NLRP3 [2]; Table B, activity class): 10 to 100 nM
C[C@@H]1C[C@@H](NC(=O)N(C)c2ccc(C(F)(F)F)cc2F)[C@H]2CC[C@@H]1N2c1nnn[nH]1 (single isomer, unassigned) [48A*] | < 1000 | – | < 1000 | –
C[C@@H]1CCN(c2nnn[nH]2)C[C@H](NC(=O)N(CC2CC2)c2ccc(OC(F)(F)F)cc2)C1 (single isomer, unassigned) [44A*] | < 1000 | – | 2000 to 3000 | –
C[C@@H]1C[C@@H](NC(=O)N(C)c2ccc(OC(F)F)c(F)c2F)[C@H]2CC[C@@H]1N2c1nnn[nH]1 (single isomer, unassigned) [58A*] | – | – | < 1000 | –
CCN(C(=O)N[C@@H]1C[C@@H](C)[C@@H]2CC[C@H]1N2c1nnn[nH]1)c1ccc(OC(F)F)cc1F (single isomer, unassigned) [65A*] | < 1000 | – | < 1000 | –
C[C@@H]1C[C@@H](NC(=O)N(C)c2ccc(OC(F)(F)F)c(F)c2)[C@H]2CC[C@@H]1N2c1nnn[nH]1 (single isomer, unassigned) [51A*] | < 1000 | – | 1000 to 2000 | –
CN(C(=O)N[C@@H]1CCCN(c2ccccc2)C1)c1ccc(Cl)cc1 [Comparative Example D1, (R)-1-(4-chlorophenyl)-1-methy1-3-(1-phenylpiperidin-3-yl)urea, reference compound] | – | 39100 | – | –
CN(C(=O)N[C@@H]1CCN(c2nnn[nH]2)C1)c1ccc(Cl)cc1 (single isomer, unassigned) [Comparative Example A*, reference compound] | – | > 100000 | – | –

More lines, main results first:

IC50 (human NLRP3 [1]; Table B, activity class) [nM] | IC50 (human NLRP3 [2]; Table C) [nM] | SMILES | IC50 (human NLRP3 [3]; Table B, activity class) [nM] | further results
1000 to 10000 | 268 | CN(C(=O)N[C@@H]1CCCN(c2nnn[nH]2)C1)c1ccc(Cl)cc1 [Compound 2A, (R)-3-(1-(1H-tetrazol-5-yl)piperidin-3-yl)-1-(4-chlorophenyl)-1-methylurea] | – | IC50 (human NLRP3 [1]; Table C): 9700 nM; fold improvement in binding activity (SPA IC50) (human NLRP3 [1]): > 19 fold; IC50 (human NLRP3 [2]; Table B, activity class): 100 to 500 nM; fold increase in potency as measured by PBMC IC50 (human NLRP3 [2]; relative to Comparative Example A*): > 350 fold; fold improvement in potency (PBMC IC50) (human NLRP3 [2]; relative to Comparative Example B1): > 18 fold; fold increase in potency as measured by PBMC IC50 (human NLRP3 [2]; relative to Comparative Example B2): > 15 fold; fold improvement in potency (PBMC IC50) (human NLRP3 [2]; relative to Comparative Example C1): 40 fold; fold improvement in potency (PBMC IC50) (human NLRP3 [2]; relative to Comparative Example C2): > 200 fold; fold increase in potency (PBMC IC50) (human NLRP3 [2]; relative to Comparative Example D1): 146 fold; fold increase in potency (PBMC IC50) (human NLRP3 [2]; relative to Comparative Example D2): > 350 fold; fold increase in potency (PBMC IC50) (human NLRP3 [2]; relative to Comparative Example F): 58 fold; fold increase in potency (PBMC IC50) (human NLRP3 [2]; relative to Comparative Example G): > 350 fold; fold increase in potency (PBMC IC50) (human NLRP3 [2]; relative to Comparative Example H): 39 fold; fold increase in potency (PBMC IC50) (human NLRP3 [2]; relative to Comparative Example J1): > 350 fold; fold increase in potency (PBMC IC50) (human NLRP3 [2]; relative to Comparative Example J2): > 350 fold
< 1000 | – | C[C@@H]1CCN(c2nnn[nH]2)C[C@H](NC(=O)N(C)c2ccc(C3CC3)cc2)C1 (single isomer, unassigned) [8A*] | – | IC50 (human NLRP3 [2]; Table B, activity class): < 10 nM
– | > 5000 | O=C(Nc1ccc(Cl)cc1)Nc1cccc(-c2nnn[nH]2)c1 [Comparative Example B1, 1-(3-(1H-tetrazol-5-yl)phenyl)-3-(4-chlorophenyl)urea, reference compound] | – | IC50 (human NLRP3 [1]; Table C): 190000 nM
1000 to 10000 | – | C[C@H]1CCN(c2nnn[nH]2)C[C@@H](NC(=O)N(C)c2ccc(OC(F)F)c(F)c2F)C1 (single isomer, unassigned) [40D*] | > 3000 | –
10000 to 50000 | – | C[C@@H]1CCN(c2nnn[nH]2)C[C@H](NC(=O)N(C)c2cnc(C(F)(F)F)cn2)C1 (single isomer, unassigned) [32A*] | > 3000 | –
– | 892 | CN(C(=O)N[C@@H]1CCCN(c2nnn[nH]2)C1)c1ccc(Cl)cc1F [Compound 66, (R)-3-(1-(1H-tetrazol-5-yl)piperidin-3-yl)-1-(4-chloro-2-fluorophenyl)-1-methylurea] | – | IC50 (human NLRP3 [2]; Table B, activity class): > 500 nM
– | 15500 | CN(C(=O)N[C@@H]1CCCN(c2nnnn2C)C1)c1ccc(Cl)cc1 [Comparative Example F, (R)-1-(4-chlorophenyl)-1-methyl-3-(1-(1-methy1-1H-tetrazol-5-yl)piperidin-3-yl)urea, reference compound] | – | –
– | 4200 | CN(C(=O)Nc1cccc(-c2nnn[nH]2)c1)c1ccc(Cl)cc1 [Comparative Example B2, 3-(3-(1H-tetrazol-5-yl)phenyl)-1-(4-chlorophenyl)-1-methylurea, reference compound] | – | IC50 (human NLRP3 [1]; Table C): 12500 nM; fold improvement in binding activity (SPA IC50) (human NLRP3 [1]): > 15 fold
< 1000 | 9 | C[C@@H]1CCN(c2nnn[nH]2)C[C@H](NC(=O)N(C)c2ccc(Cl)cc2Cl)C1 (single isomer, unassigned) [7A*] | – | IC50 (human NLRP3 [1]; Table C): 240 nM; IC50 (human NLRP3 [2]; Table B, activity class): < 10 nM
– | > 100000 | CN(C(=O)N[C@H]1CCCN(c2ccccc2)C1)c1ccc(Cl)cc1 [Comparative Example D2, (S)-1-(4-chlorophenyl)-1-methyl-3-(1-phenylpiperidin-3-yl)urea, reference compound] | – | –
